Results from PubChem BioAssay AID1963973 (Molecular Pharmacology Branch, DTP, NCI, 2024).

Tested on: 883617-216-R-J1-PDC tumor spheroids, viability
Test: Anticancer human tumor 883617-216-R-J1-PDC patient-derived bladder carcinoma cell line growth inhibition [PI3K]
Settings: spheroids with HUVEC and MSC; for IC50: curve of first compound; for viability, T/C: stronger effect = lower value
How it was run: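 Three cell types, namely tumor cells, endothelial cells and mesenchymal stem cells, formed each spheroid. Combinations with four PI3K inhibitors were screened at clinically achievable concentrations decreasing by half-log, and spheroid viability was recorded.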

[1] = second compound 0.0316 µM, first compound 0.0316 µM
[2] = second compound 0.0316 µM, first compound 0.1 µM
[3] = second compound 0.1 µM, first compound 0.0316 µM
[4] = second compound 0.1 µM, first compound 0.1 µM
[5] = second compound 0.316 µM, first compound 0.0316 µM
[6] = second compound 0.316 µM, first compound 0.1 µM
[7] = second compound 1 µM, first compound 0.0316 µM
[8] = second compound 1 µM, first compound 0.1 µM
[9] = second compound 3.16 µM, first compound 0.0316 µM
[10] = second compound 3.16 µM, first compound 0.1 µM
[11] = second compound 10 µM, first compound 0.0316 µM
[12] = second compound 10 µM, first compound 0.1 µM
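Note: spheroids exposed to agents for 7 days before the viability read.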

CC(=O)c1c(C)c2cnc(Nc3ccc(N4CCNCC4)cn3)nc2n(C2CCCC2)c1=O + Cc1nc(NC(=O)N2CCCC2C(N)=O)sc1-c1ccnc(C(C)(C)C(F)(F)F)c1
IC50 (second compound 0.0316 µM): > 100 nM
IC50 (second compound 0.1 µM): 23.7 nM
IC50 (second compound 0.316 µM): < 0.316 nM
IC50 (second compound 1 µM): < 0.316 nM
IC50 (second compound 3.16 µM): < 0.316 nM
IC50 (second compound 10 µM): < 0.316 nM
viability, T/C (second compound 0.0316 µM, first compound 0.000316 µM): 81%
viability, T/C (second compound 0.0316 µM, first compound 0.001 µM): 70.3%
viability, T/C (second compound 0.0316 µM, first compound 0.00316 µM): 82.5%
viability, T/C (second compound 0.0316 µM, first compound 0.01 µM): 68.1%
viability, T/C [1]: 58.7%
viability, T/C [2]: 50.3%
viability, T/C (second compound 0.1 µM, first compound 0.000316 µM): 65.4%
viability, T/C (second compound 0.1 µM, first compound 0.001 µM): 63.5%
viability, T/C (second compound 0.1 µM, first compound 0.00316 µM): 62.8%
viability, T/C (second compound 0.1 µM, first compound 0.01 µM): 57.8%
viability, T/C [3]: 47.4%
viability, T/C [4]: 37.6%
viability, T/C (second compound 0.316 µM, first compound 0.000316 µM): 47.7%
viability, T/C (second compound 0.316 µM, first compound 0.001 µM): 43.8%
viability, T/C (second compound 0.316 µM, first compound 0.00316 µM): 33%
viability, T/C (second compound 0.316 µM, first compound 0.01 µM): 43.2%
viability, T/C [5]: 34.5%
viability, T/C [6]: 26.3%
viability, T/C (second compound 1 µM, first compound 0.000316 µM): 26.7%
viability, T/C (second compound 1 µM, first compound 0.001 µM): 31.5%
viability, T/C (second compound 1 µM, first compound 0.00316 µM): 25.7%
viability, T/C (second compound 1 µM, first compound 0.01 µM): 23.3%
viability, T/C [7]: 21.1%
viability, T/C [8]: 17.2%
viability, T/C (second compound 3.16 µM, first compound 0.000316 µM): 12.9%
viability, T/C (second compound 3.16 µM, first compound 0.001 µM): 11.8%
viability, T/C (second compound 3.16 µM, first compound 0.00316 µM): 13.6%
viability, T/C (second compound 3.16 µM, first compound 0.01 µM): 14.4%
viability, T/C [9]: 11.7%
viability, T/C [10]: 11.6%
viability, T/C (second compound 10 µM, first compound 0.000316 µM): 8.2%
viability, T/C (second compound 10 µM, first compound 0.001 µM): 6.55%
viability, T/C (second compound 10 µM, first compound 0.00316 µM): 6.27%
viability, T/C (second compound 10 µM, first compound 0.01 µM): 7.44%
viability, T/C [11]: 6.18%
viability, T/C [12]: 5.86%

CC(Cn1ccc(-c2ccc(C#N)c(Cl)c2)n1)NC(=O)c1cc(C(C)O)[nH]n1 (centres undefined) + CC(Nc1ncnc2nc[nH]c12)c1cc2cccc(Cl)c2c(=O)n1-c1ccccc1
IC50 (second compound 0.0316 µM): > 10000 nM
IC50 (second compound 0.1 µM): > 10000 nM
IC50 (second compound 0.316 µM): > 10000 nM
IC50 (second compound 1 µM): > 10000 nM
IC50 (second compound 3.16 µM): > 10000 nM
IC50 (second compound 10 µM): < 31.6 nM
viability, T/C [1]: 98.1%
viability, T/C [2]: 104%
viability, T/C (second compound 0.0316 µM, first compound 0.316 µM): 90.5%
viability, T/C (second compound 0.0316 µM, first compound 1 µM): 103%
viability, T/C (second compound 0.0316 µM, first compound 3.16 µM): 103%
viability, T/C (second compound 0.0316 µM, first compound 10 µM): 95.3%
viability, T/C [3]: 94.5%
viability, T/C [4]: 84.7%
viability, T/C (second compound 0.1 µM, first compound 0.316 µM): 84.6%
viability, T/C (second compound 0.1 µM, first compound 1 µM): 100%
viability, T/C (second compound 0.1 µM, first compound 3.16 µM): 95.3%
viability, T/C (second compound 0.1 µM, first compound 10 µM): 97%
viability, T/C [5]: 95.8%
viability, T/C [6]: 92.9%
viability, T/C (second compound 0.316 µM, first compound 0.316 µM): 90.7%
viability, T/C (second compound 0.316 µM, first compound 1 µM): 97.9%
viability, T/C (second compound 0.316 µM, first compound 3.16 µM): 95.5%
viability, T/C (second compound 0.316 µM, first compound 10 µM): 90.7%
viability, T/C [7]: 78.3%
viability, T/C [8]: 77.1%
viability, T/C (second compound 1 µM, first compound 0.316 µM): 78.3%
viability, T/C (second compound 1 µM, first compound 1 µM): 86.9%
viability, T/C (second compound 1 µM, first compound 3.16 µM): 90.8%
viability, T/C (second compound 1 µM, first compound 10 µM): 76.8%
viability, T/C [9]: 76.7%
viability, T/C [10]: 70.9%
viability, T/C (second compound 3.16 µM, first compound 0.316 µM): 61.2%
viability, T/C (second compound 3.16 µM, first compound 1 µM): 61%
viability, T/C (second compound 3.16 µM, first compound 3.16 µM): 68.1%
viability, T/C (second compound 3.16 µM, first compound 10 µM): 74.2%
viability, T/C [11]: 52.9%
viability, T/C [12]: 43.1%
viability, T/C (second compound 10 µM, first compound 0.316 µM): 44.6%
viability, T/C (second compound 10 µM, first compound 1 µM): 51.4%
viability, T/C (second compound 10 µM, first compound 3.16 µM): 43.7%
viability, T/C (second compound 10 µM, first compound 10 µM): 50%
